Test results published in US20230167118A1, “DEGRADATION OF BRUTON'S TYROSINE KINASE (BTK) BY CONJUGATION OF BTK INIDBITORS WITH E3 LIGASE LIGAND AND METHODS OF USE” (BEIGENE, LTD., priority 2020, published 2023).

Key:
HEK-293 cells = test: HEK-293 Cytotoxicity Assay (CellTiter-Glo); assay type: cell-based; details: Homo sapiens, HEK293, 72 h incubation, CellTiter-Glo luminescence
How it was run: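 HEK-293 cells treated 72 h with 8 concentrations (4-fold dilutions, 0.2% DMSO final). Viability read by CellTiter-Glo luminescence; IC50 from four-parameter logistic fit of % inhibition.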

BTK = molecular target: T1, BTK (Homo sapiens, UniProt Q06187); test: Cell Degradation: BTK degradation in TMD-8 cells, HTRF assay; assay type: cell-based; details: 6 h treatment, IC50 (DC50) of BTK degradation
T1 construct: High control=Cell group with added DMSO and without compound, indicating microplate readings without BTK degradation; endogenous in cells; host or cells: TMD-8 cells
How it was run: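 TMD-8 cells treated 6 h with 8-dose 6-fold dilutions in 0.2% DMSO, then lysed and BTK quantified by HTRF (665/620 nm). Degradation % normalised to high/low controls; DC50 from four-parameter fit, Dmax as maximal degradation.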

T1 sequence (Q06187 whole entry): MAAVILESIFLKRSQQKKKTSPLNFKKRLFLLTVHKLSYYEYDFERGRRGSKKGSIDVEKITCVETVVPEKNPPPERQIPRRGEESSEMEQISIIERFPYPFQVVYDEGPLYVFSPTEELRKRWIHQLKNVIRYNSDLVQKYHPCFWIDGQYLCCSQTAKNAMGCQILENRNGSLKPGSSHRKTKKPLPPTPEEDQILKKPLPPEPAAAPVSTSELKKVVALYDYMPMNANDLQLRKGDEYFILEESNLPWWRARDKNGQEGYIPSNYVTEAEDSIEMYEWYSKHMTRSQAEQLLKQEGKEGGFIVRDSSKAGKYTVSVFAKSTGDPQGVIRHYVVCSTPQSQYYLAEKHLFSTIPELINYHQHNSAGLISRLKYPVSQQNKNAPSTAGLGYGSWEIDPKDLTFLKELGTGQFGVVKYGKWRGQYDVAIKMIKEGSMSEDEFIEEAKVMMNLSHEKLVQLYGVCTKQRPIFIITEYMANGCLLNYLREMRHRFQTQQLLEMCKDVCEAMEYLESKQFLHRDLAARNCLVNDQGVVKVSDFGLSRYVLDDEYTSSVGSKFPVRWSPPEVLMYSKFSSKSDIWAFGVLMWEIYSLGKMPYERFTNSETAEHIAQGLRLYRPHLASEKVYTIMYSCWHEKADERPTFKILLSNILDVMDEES

Row | Compound | DC50 (BTK) [nM] | IC50 (HEK-293 cells) [nM]
1 | Cc1cc(-c2ncnc3[nH]c(-c4ccc(N5CCN(C6CC(c7ccc(C8CCC(=O)NC8=O)cc7)C6)CC5)cc4)cc23)ccc1[C@@H](C)NC(=O)c1nc(C(C)(C)C)no1 (stereo partly drawn) [Example 153, 3-(tert-butyl)-N-((1R)-1-(4-(6-(4-(4-(3-(4-(2,6-dioxopiperidin-3-yl)phenyl)cyclobutyl)piperazin-1-yl)phenyl)-7H-pyrrolo[2,3-d]pyrimidin-4-yl)-2-methylphenyl)ethyl)-1,2,4-oxadiazole-5-carboxamide] | 2.02 | 9580
2 | C[C@@H](NC(=O)c1nc(C(C)(C)C)no1)c1ccc(-c2ncnc3[nH]c(-c4ccc(N5CCN(CC6CCN(c7ccc(N8CCC(=O)NC8=O)cc7)CC6)CC5)cn4)cc23)cc1F [Example 154, (R)-3-(tert-butyl)-N-(1-(4-(6-(5-(4-((1-(4-(2,4-dioxotetrahydropyrimidin-1(2H)-yl)phenyl)piperidin-4-yl)methyl)piperazin-1-yl)pyridin-2-yl)-7H-pyrrolo[2,3-d]pyrimidin-4-yl)-2-fluorophenyl)ethyl)-1,2,4-oxadiazole-5-carboxamide] | 0.79 | > 10000
3 | CC(C)(C)c1nc(C(=O)N[C@@H]2CCc3cc(-c4ncnc5[nH]c(-c6ccc(N7CCN(CC8CCN(c9ccc(N%10CCC(=O)NC%10=O)cc9)CC8)CC7)cc6)cc45)ccc32)no1 [Example 156, (R)-5-(tert-butyl)-N-(5-(6-(4-(4-((1-(4-(2,4-dioxotetrahydropyrimidin-1(2H)-yl)phenyl)piperidin-4-yl)methyl)piperazin-1-yl)phenyl)-7H-pyrrolo[2,3-d]pyrimidin-4-yl)-2,3-dihydro-1H-inden-1-yl)-1,2,4-oxadiazole-3-carboxamide] | 2.43 | > 10000
4 | Cc1cc(-c2ncnc3[nH]c(-c4cnc(N5CCN(CC6CCN(c7ccc(N8CCC(=O)NC8=O)cc7)CC6)CC5)nc4)cc23)ccc1[C@@H](C)NC(=O)c1nc(C(C)(C)C)no1 [Example 160, (R)-3-(tert-butyl)-N-(1-(4-(6-(2-(4-((1-(4-(2,4-dioxotetrahydropyrimidin-1(2H)-yl)phenyl)piperidin-4-yl)methyl)piperazin-1-yl)pyrimidin-5-yl)-7H-pyrrolo[2,3-d]pyrimidin-4-yl)-2-methylphenyl)ethyl)-1,2,4-oxadiazole-5-carboxamide] | 1.25 | > 10000
5 | Cc1cc(-c2ncnc3[nH]c(-c4ccc(C5CCN(CC6CCN(c7ccc(N8CCC(=O)NC8=O)cc7)CC6)C5)nc4)cc23)ccc1[C@@H](C)NC(=O)c1nc(C(C)(C)C)no1 (stereo partly drawn) [Example 162, 3-(tert-butyl)-N-((1R)-1-(4-(6-(6-(1-((1-(4-(2,4-dioxotetrahydropyrimidin-1(2H)-yl)phenyl)piperidin-4-yl)methyl)pyrrolidin-3-yl)pyridin-3-yl)-7H-pyrrolo[2,3-d]pyrimidin-4-yl)-2-methylphenyl)ethyl)-1,2,4-oxadiazole-5-carboxamide] | 1.6 | > 10000
6 | Cc1cc(-c2ncnc3[nH]c(-c4c(C)nn(C5CCN(CC6CCN(c7ccc(N8CCC(=O)NC8=O)cc7)CC6)C5)c4C)cc23)ccc1[C@@H](C)NC(=O)c1nc(C(C)(C)C)no1 (stereo partly drawn) [Example 163, 3-(tert-butyl)-N-((1R)-1-(4-(6-(1-(1-((1-(4-(2,4-dioxotetrahydropyrimidin-1(2H)-yl)phenyl)piperidin-4-yl)methyl)pyrrolidin-3-yl)-3,5-dimethyl-1H-pyrazol-4-yl)-7H-pyrrolo[2,3-d]pyrimidin-4-yl)-2-methylphenyl)ethyl)-1,2,4-oxadiazole-5-carboxamide] | 1.32 | > 10000
7 | Cc1cc(-c2ncnc3[nH]c(-c4ccc(N5CCCN(CC6CCN(c7ccc(N8CCC(=O)NC8=O)cc7)CC6)CC5)cc4)cc23)ccc1[C@@H](C)NC(=O)c1nc(C(C)(C)C)no1 [Example 167, (R)-3-(tert-butyl)-N-(1-(4-(6-(4-(4-((1-(4-(2,4-dioxotetrahydropyrimidin-1(2H)-yl)phenyl)piperidin-4-yl)methyl)-1,4-diazepan-1-yl)phenyl)-7H-pyrrolo[2,3-d]pyrimidin-4-yl)-2-methylphenyl)ethyl)-1,2,4-oxadiazole-5-carboxamide] | 2.61 | > 10000
8 | Cc1cc(-c2ncnc3[nH]c(-c4cnc(N5CCN(CC6CCN(c7ccc(N8CCC(=O)NC8=O)cc7)CC6)CC5)s4)cc23)ccc1[C@@H](C)NC(=O)c1nc(C(C)(C)C)no1 [Example 168, (R)-3-(tert-butyl)-N-(1-(4-(6-(2-(4-((1-(4-(2,4-dioxotetrahydropyrimidin-1(2H)-yl)phenyl)piperidin-4-yl)methyl)piperazin-1-yl)thiazol-5-yl)-7H-pyrrolo[2,3-d]pyrimidin-4-yl)-2-methylphenyl)ethyl)-1,2,4-oxadiazole-5-carboxamide] | 0.75 | > 10000

More lines, main results first:

Row | DC50 (BTK) [nM] | Compound | IC50 (HEK-293 cells) [nM]
9 | > 2000 | Cc1cc(-c2ncnc3[nH]c(-n4nc(C)c(C5CCN(CC6CCN(c7ccc(N8CCC(=O)NC8=O)cc7)CC6)CC5)c4C)cc23)ccc1[C@@H](C)NC(=O)c1nc(C(C)(C)C)no1 [Example 152, (R)-3-(tert-butyl)-N-(1-(4-(6-(4-(1-((1-(4-(2,4-dioxotetrahydropyrimidin-1(2H)-yl)phenyl)piperidin-4-yl)methyl)piperidin-4-yl)-3,5-dimethyl-1H-pyrazol-1-yl)-7H-pyrrolo[2,3-d]pyrimidin-4-yl)-2-methylphenyl)ethyl)-1,2,4-oxadiazole-5-carboxamide] | 2460
10 | 1.04 | Cc1cc(-c2ncnc3[nH]c(-c4ccc(C5CN(CC6CCN(c7ccc(N8CCC(=O)NC8=O)cc7)CC6)C5)cc4)cc23)ccc1[C@@H](C)NC(=O)c1nc(C(C)(C)C)no1 [Example 157, (R)-3-(tert-butyl)-N-(1-(4-(6-(4-(1-((1-(4-(2,4-dioxotetrahydropyrimidin-1(2H)-yl)phenyl)piperidin-4-yl)methyl)azetidin-3-yl)phenyl)-7H-pyrrolo[2,3-d]pyrimidin-4-yl)-2-methylphenyl)ethyl)-1,2,4-oxadiazole-5-carboxamide] | > 10000
11 | 1.12 | Cc1cc(-c2ncnc3[nH]c(-c4ccc(C5CCN(CC6CCN(c7ccc(N8CCC(=O)NC8=O)cc7)CC6)C5)cc4)cc23)ccc1[C@@H](C)NC(=O)c1nc(C(C)(C)C)no1 (stereo partly drawn) [Example 158, 3-(tert-butyl)-N-((1R)-1-(4-(6-(4-(1-((1-(4-(2,4-dioxotetrahydropyrimidin-1(2H)-yl)phenyl)piperidin-4-yl)methyl)pyrrolidin-3-yl)phenyl)-7H-pyrrolo[2,3-d]pyrimidin-4-yl)-2-methylphenyl)ethyl)-1,2,4-oxadiazole-5-carboxamide] | 4040
12 | 0.93 | Cc1cc(-c2ncnc3[nH]c(-c4ccc(C5=CCN(CC6CCN(c7ccc(N8CCC(=O)NC8=O)cc7)CC6)C5)nc4)cc23)ccc1[C@@H](C)NC(=O)c1nc(C(C)(C)C)no1 [Example 159, (R)-3-(tert-butyl)-N-(1-(4-(6-(6-(1-((1-(4-(2,4-dioxotetrahydropyrimidin-1(2H)-yl)phenyl)piperidin-4-yl)methyl)-2,5-dihydro-1H-pyrrol-3-yl)pyridin-3-yl)-7H-pyrrolo[2,3-d]pyrimidin-4-yl)-2-methylphenyl)ethyl)-1,2,4-oxadiazole-5-carboxamide] | > 10000
13 | 0.92 | Cc1cc(-c2ncnc3[nH]c(-c4c(C)nn(C5CCN(C(=O)CNCC6CCN(c7ccc(N8CCC(=O)NC8=O)cc7)CC6)CC5)c4C)cc23)ccc1[C@@H](C)NC(=O)c1nc(C(C)(C)C)no1 [Example 161, (R)-3-(tert-butyl)-N-(1-(4-(6-(1-(1-(((1-(4-(2,4-dioxotetrahydropyrimidin-1(2H)-yl)phenyl)piperidin-4-yl)methyl)glycyl)piperidin-4-yl)-3,5-dimethyl-1H-pyrazol-4-yl)-7H-pyrrolo[2,3-d]pyrimidin-4-yl)-2-methylphenyl)ethyl)-1,2,4-oxadiazole-5-carboxamide] | 3550
14 | 1.26 | Cc1cc(-c2ncnc3[nH]c(-c4ccc(N5CC6(CN(CC7CCN(c8ccc(N9CCC(=O)NC9=O)cc8)CC7)C6)C5)cc4)cc23)ccc1[C@@H](C)NC(=O)c1nc(C(C)(C)C)no1 [Example 164, (R)-3-(tert-butyl)-N-(1-(4-(6-(4-(6-((1-(4-(2,4-dioxotetrahydropyrimidin-1(2H)-yl)phenyl)piperidin-4-yl)methyl)-2,6-diazaspiro[3.3]heptan-2-yl)phenyl)-7H-pyrrolo[2,3-d]pyrimidin-4-yl)-2-methylphenyl)ethyl)-1,2,4-oxadiazole-5-carboxamide] | > 10000
15 | 0.69 | Cc1cc(-c2ncnc3[nH]c(-c4ccc(N5CCN(CC6CCN(c7ccc(N8CCC(=O)NC8=O)cc7)CC6)CC5)cn4)cc23)ccc1[C@@H](C)NC(=O)c1nc(C2(C)CC2)no1 [Example 165, (R)-N-(1-(4-(6-(5-(4-((1-(4-(2,4-dioxotetrahydropyrimidin-1(2H)-yl)phenyl)piperidin-4-yl)methyl)piperazin-1-yl)pyridin-2-yl)-7H-pyrrolo[2,3-d]pyrimidin-4-yl)-2-methylphenyl)ethyl)-3-(1-methylcyclopropyl)-1,2,4-oxadiazole-5-carboxamide] | > 10000
16 | 1.61 | Cc1cc(-c2ncnc3[nH]c(-c4ccc(N5CCN(CC6CCN(c7ccc(N8CCC(=O)NC8=O)cc7)CC6)CC5)nc4)cc23)ccc1[C@@H](C)NC(=O)c1nc(C2(C)CC2)no1 [Example 166, (R)-N-(1-(4-(6-(6-(4-((1-(4-(2,4-dioxotetrahydropyrimidin-1(2H)-yl)phenyl)piperidin-4-yl)methyl)piperazin-1-yl)pyridin-3-yl)-7H-pyrrolo[2,3-d]pyrimidin-4-yl)-2-methylphenyl)ethyl)-3-(1-methylcyclopropyl)-1,2,4-oxadiazole-5-carboxamide] | > 10000
